SMILES strings stand for the structures. Calls of active or inactive are those of the source. The calls are words filed in the database; no cut-off is given here.

For data set [1], the target named is T1, Oxysterols receptor LXR-beta (Mus musculus) (UniProt Q60644).
T1 sequence (whole entry): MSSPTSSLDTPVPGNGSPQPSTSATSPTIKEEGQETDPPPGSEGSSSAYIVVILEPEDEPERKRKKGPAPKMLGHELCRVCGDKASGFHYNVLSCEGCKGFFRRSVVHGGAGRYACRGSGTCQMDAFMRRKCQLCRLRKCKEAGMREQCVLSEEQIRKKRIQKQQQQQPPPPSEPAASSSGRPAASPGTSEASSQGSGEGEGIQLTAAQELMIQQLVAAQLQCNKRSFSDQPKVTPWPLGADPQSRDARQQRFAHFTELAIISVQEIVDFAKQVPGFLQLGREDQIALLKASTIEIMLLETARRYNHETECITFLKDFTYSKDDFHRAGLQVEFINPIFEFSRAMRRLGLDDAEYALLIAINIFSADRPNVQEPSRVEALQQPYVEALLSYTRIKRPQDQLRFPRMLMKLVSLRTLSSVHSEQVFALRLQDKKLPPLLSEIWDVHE
Nature of the data set: Agonist activity at LXRbeta in mouse BV2 cells assessed as upregulation of ABCA1 protein expression after 12 to 48 hrs by Western blot analysis. In kind it is cell-based. As to conditions: BV-2. In general terms: In western blotting, separated proteins are transferred to a membrane and probed.

Data set [2] has as its target T1, Oxysterols receptor LXR-beta (Mus musculus). Nature of the data set: Agonist activity at LXRbeta in mouse RAW264.7 cells assessed as induction of ABCA1 promoter activation at 1 uM after 24 hrs by Dual-Glo luciferase reporter gene assay relative to vehicle-treated control. It is filed as cell-based.
Data set [3] relates to Mus musculus. Nature of the data set: Antialzheimer activity in double transgenic B6C3 mouse overexpressing APP swedish mutant and PSEN1dE9 assessed as upregulation of ABCA1 protein expression in brain at 10 mg/kg, ip administered 3 times per week measured after 6 weeks by Western blot analysis relative to vehicle-treated control. In kind it is functional. The note with it: route intraperitoneal.

In data set [4] the target is T1, Oxysterols receptor LXR-beta (Mus musculus). Put plainly: Agonist activity at LXRbeta in mouse BV2 cells assessed as upregulation of ABCA1 protein expression at 1 uM after 12 to 48 hrs by Western blot analysis. As to conditions: BV-2. In kind it is cell-based.
Data set [5] has as its system Mus musculus. Put plainly: Antialzheimer activity in double transgenic B6C3 mouse overexpressing APP swedish mutant and PSEN1dE9 assessed as reduction of amyloid beta42 plaque number in cortex at 10 mg/kg, ip administered 3 times per week measured after 6 weeks by OC staining-based fluorescence microscopic analysis relative to vehicle-treated control. In kind it is functional. Also noted: scale not given: the % may be the effect or the level left. As to conditions: route intraperitoneal.

Data set [6] concerns Mus musculus. Put plainly: Antialzheimer activity in double transgenic B6C3 mouse overexpressing APP swedish mutant and PSEN1dE9 assessed as reduction of soluble amyloid beta42 level at 10 mg/kg, ip administered 3 times per week measured after 6 weeks by ELISA relative to vehicle-treated control. The arrangement: scale not given: the % may be the effect or the level left. It is filed as functional. As to conditions: route intraperitoneal. (ELISA stands for enzyme-linked immunosorbent assay.)

Data set [7] has as its target T1, Oxysterols receptor LXR-beta (Mus musculus). Nature of the data set: Agonist activity at LXRbeta in mouse BV2 cells assessed as upregulation of apoE protein expression at 0.1 uM after 48 hrs by Western blot analysis relative to vehicle-treated control. It is filed as cell-based. As to conditions: BV-2.
The target is the same in data set [8]. Put plainly: Agonist activity at LXRbeta in mouse BV2 cells assessed as upregulation of apoE protein expression at 10 uM after 48 hrs by Western blot analysis relative to vehicle-treated control. In kind it is cell-based. The note with it: BV-2.
Data set [9] shares this target. Put plainly: Agonist activity at LXRbeta in mouse BV2 cells assessed as degradation of intracellular amyloid beta42 preincubated for 18 hrs followed by soluble amyloid beta42 addition measured after 24 hrs by ELISA. As to conditions: BV-2. It is filed as cell-based.
Data set [10] concerns HepG2. Put plainly: Cytotoxicity against human HepG2 cells assessed as inhibition of cell viability at 50 uM after 48 hrs by SRB assay relative to vehicle-treated control. It is filed as cell-based. The note with it: hepg2, 48 h, 50 µM.
Data set [11] has as its system HepG2. Nature of the data set: Induction of cytoplasmic lipid accumulation in human HepG2 cells at 10 uM after 4 days by oil red O staining-based light microscopic analysis. It is filed as cell-based. The note with it: hepg2, 96 h.
Data set [12] concerns the target T1, Oxysterols receptor LXR-beta (Mus musculus). Nature of the data set: Agonist activity at LXRbeta in mouse BV2 cells assessed as degradation of intracellular soluble amyloid beta42 at 0.01 uM preincubated for 18 hrs followed by soluble amyloid beta42 addition measured after 24 hrs by ELISA relative to vehicle-treated control. In kind it is cell-based. As to conditions: BV-2.

Another data set concerns BV-2. Nature of the data set: Cytotoxicity against mouse BV2 cells assessed as inhibition of cell viability at 50 uM after 48 hrs by SRB assay relative to vehicle-treated control. In kind it is cell-based. The note with it: bv-2, 48 h.
Data set [13] deals with T1, Oxysterols receptor LXR-beta (Mus musculus). Put plainly: Agonist activity at LXRbeta in mouse RAW264.7 cells assessed as induction of ABCA1 promoter activation after 24 hrs by Dual-Glo luciferase reporter gene assay. It is filed as cell-based. (In general: Reporter assays use an easily measured gene product as a stand-in for the process of interest.)
For data set [14], the system named is Mus musculus. Put plainly: Antialzheimer activity in double transgenic B6C3 mouse overexpressing APP swedish mutant and PSEN1dE9 assessed as reduction of insoluble amyloid beta42 level at 10 mg/kg, ip administered 3 times per week measured after 6 weeks by ELISA relative to vehicle-treated control. It is filed as functional. The arrangement: scale not given: the % may be the effect or the level left. As to conditions: route intraperitoneal.

For data set [15], the system named is Mus musculus. Put plainly: Antialzheimer activity in double transgenic B6C3 mouse overexpressing APP swedish mutant and PSEN1dE9 assessed as reduction of amyloid beta42 plaque load in hippocampus at 10 mg/kg, ip administered 3 times per week measured after 6 weeks by OC staining-based fluorescence microscopic analysis relative to vehicle-treated control. As to conditions: route intraperitoneal. It is filed as functional. Also noted: scale not given: the % may be the effect or the level left.

For data set [16], the system named is Mus musculus. Nature of the data set: Antialzheimer activity in double transgenic B6C3 mouse overexpressing APP swedish mutant and PSEN1dE9 assessed as reduction of amyloid beta42 plaque number in brain at 10 mg/kg, ip administered 3 times per week measured after 6 weeks by thioflavin S staining-based fluorescence microscopic analysis relative to vehicle-treated control. In kind it is functional, organism-based. The arrangement: dose 10 mg/kg.

The test system of data set [17] is HepG2. Put plainly: Induction of intracellular triglyceride accumulation in human HepG2 cells at 1 uM after 4 days relative to vehicle-treated control. In kind it is cell-based. As to conditions: hepg2, 96 h.
Data set [18] has as its target T1, Oxysterols receptor LXR-beta (Mus musculus). Put plainly: Agonist activity at LXRbeta in mouse BV2 cells assessed as degradation of intracellular soluble amyloid beta42 at 0.1 uM preincubated for 18 hrs followed by soluble amyloid beta42 addition measured after 24 hrs by ELISA relative to vehicle-treated control. It is filed as cell-based. As to conditions: BV-2.

The test system of data set [19] is HepG2. Nature of the data set: Induction of intracellular triglyceride accumulation in human HepG2 cells at 10 uM after 4 days relative to vehicle-treated control. It is filed as cell-based. The note with it: hepg2, 96 h.
The target in data set [20] is T1, Oxysterols receptor LXR-beta (Mus musculus). Put plainly: Agonist activity at LXRbeta in mouse BV2 cells assessed as upregulation of apoE protein expression at 1 uM after 48 hrs by Western blot analysis relative to vehicle-treated control. As to conditions: BV-2. It is filed as cell-based.
Data set [21] shares this target. Nature of the data set: Agonist activity at LXRbeta in mouse RAW264.7 cells assessed as upregulation of ABCA1 protein expression after 18 to 48 hrs by Western blot analysis. In kind it is cell-based.
The target of data set [22] is T2, Oxysterols receptor LXR-beta (Homo sapiens) (UniProt P55055).
T2 sequence (whole entry): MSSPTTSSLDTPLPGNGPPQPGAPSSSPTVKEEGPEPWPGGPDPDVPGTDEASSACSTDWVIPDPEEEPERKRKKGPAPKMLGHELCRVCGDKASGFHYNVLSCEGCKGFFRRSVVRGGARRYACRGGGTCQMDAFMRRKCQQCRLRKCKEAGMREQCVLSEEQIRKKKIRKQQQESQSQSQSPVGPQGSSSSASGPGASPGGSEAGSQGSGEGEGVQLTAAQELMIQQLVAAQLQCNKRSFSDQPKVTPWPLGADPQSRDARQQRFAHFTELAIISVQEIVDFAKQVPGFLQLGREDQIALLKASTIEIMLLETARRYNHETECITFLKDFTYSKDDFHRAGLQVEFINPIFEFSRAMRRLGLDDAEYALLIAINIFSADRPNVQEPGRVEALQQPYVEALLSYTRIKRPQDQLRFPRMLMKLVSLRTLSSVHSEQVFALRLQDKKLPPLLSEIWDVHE
Nature of the data set: Agonist activity at human LXRbeta transfected in HEK293 cells at 1 uM after 24 hrs by luciferase reporter gene assay relative to vehicle-treated control. In kind it is cell-based.

For the molecule `Cc1ccc(/C=C/C(=O)c2ccc(N)cc2O)o1`, the Activity entry in data set [1] was “Dose-dependent effect”; in the data set on Mus musculus [5], 30%; in the data set on Mus musculus [6], 31%; in data set [9] it was “Dose-dependent effect”; with HepG2 [10] it was “Non-toxic”; in the data set with HepG2 [11] it was “Toxic”. For the same molecule, the Activity in [12] is 29%; with BV-2, “Non-toxic”; in [13] it was “Dose-dependent effect”; with Mus musculus [14], 26%; in the data set on Mus musculus [15], 28%; with HepG2 [17], -0.3%. For the same molecule, the Activity in data set [18] was 52%; in the data set on HepG2 [19] it was -0.3%; in data set [21], “Dose-dependent effect”. Further, the fold change (FC) is 2.09 in data set [2]; 2.3 with Mus musculus [3]; 1.6 in data set [7]; 2.7 in [8]; 1.9 in data set [20]; 1.79 in data set [22]. The result (in data set [4]; in the data set on Mus musculus [16]) was Active.
